What was measured:
Heat shock protein HSP90 = Heat shock protein HSP90 (Homo sapiens, UniProt P07900+P08238); assay: Inhibition of Hsp90 by recombinant ATPase assay; type: functional
SK-BR-3 = assay: Antiproliferative activity against human SKBr3 cells; type: functional, cell-based
[1] = Homo sapiens, SK-BR-3, read-out: IC50

Structure (SMILES) | IC50 (Heat shock protein HSP90) | IC50 (SK-BR-3; [1]) | IC50 (SK-BR-3; sk-br-3)
CC1(C)CC2=Nc3ccccc3NC(c3cccc(O)c3O)C2=C(O)C1 (stereo not given) | 2.7 µM | 66 µM | 
O=c1c(Oc2ccc(F)cc2)coc2c(O)c(O)ccc12 | 3.2 µM |  | Not Active
Cc1cc(O)nc(SCC(=O)c2ccc(O)c(O)c2)n1 | 2.3 µM |  | Not Active
O=S(=O)(Nc1ccc(Cl)cc1O)c1ccccc1 | 2 µM | 75 µM | 
COc1ccc(O)c(-c2c[nH]nc2-c2cccs2)c1 | 3 µM |  | Not Active
COc1cc(C2CC(c3ccccc3O)=NN2)ccc1O (stereo not given) | 5.4 µM | 48 µM | 
O=C1CC(=O)N(c2cccc(Cl)c2)N1 | 4.1 µM |  | Not Active
Cc1nc(N)sc1-c1csc(Nc2ccccn2)n1 | 7 µM |  | Not Active
O=C1CC(Nc2ccc(N3CCOCC3)cc2)C(=O)N1Cc1ccccc1 (stereo not given) | 1.9 µM |  | Not Active
COc1cccc(C(=O)Nc2ccc(O)c(C)c2)c1 | 2.5 µM |  | Not Active
